Data: patent publication US20200016159A1, “N3-CYCLICALLY SUBSTITUTED THIENOURACILS AND USE THEREOF” (Bayer Aktiengesellschaft, priority 2016, published 2020)

Molecular target: T1, human adenosine A2b receptor (Homo sapiens, UniProt P29275)
T1 sequence (P29275 1-332): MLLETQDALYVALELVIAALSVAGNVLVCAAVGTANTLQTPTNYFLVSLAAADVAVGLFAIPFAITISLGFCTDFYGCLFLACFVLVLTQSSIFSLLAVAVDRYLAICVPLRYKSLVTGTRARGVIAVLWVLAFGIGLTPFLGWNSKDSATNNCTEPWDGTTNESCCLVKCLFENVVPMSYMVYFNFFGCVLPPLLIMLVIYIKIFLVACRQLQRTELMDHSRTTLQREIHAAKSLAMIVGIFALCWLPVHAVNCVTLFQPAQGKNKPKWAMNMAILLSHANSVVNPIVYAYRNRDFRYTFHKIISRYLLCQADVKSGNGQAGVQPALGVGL
Assay: Cellular in vitro reporter gene test for A2b receptor activity (antagonism of NECA)
Type: cell-based
Parameters: expressed in transfected cells; host or cells: CHO-K1 (Chinese hamster ovary) with CRE-luciferase reporter
Conditions: recombinant CHO-K1 cells, CRE-luciferase reporter, co-incubation with EC50 concentration of NECA, 3 hours
How it was run: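 Antagonism measured as block of NECA-induced, cAMP/CRE-dependent luciferase expression in recombinant A2b CHO-K1 cells. NECA used at the EC50 set in a pre-experiment on each test day; luminescence detected after 3 h. Reported as IC50, partly averaged and rounded to two significant figures.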

Structure (SMILES)	IC50 [nM]
COCCn1c(=O)n([C@H]2C[C@@H](OC)C2)c(=O)c2c(C)c(CN3CCNC(=O)C3=O)sc21 [Example 162, 6-[(2,3-Dioxopiperazin-1-yl)methyl]-3-(cis-3-methoxycyclobutyl)-1-(2-methoxyethyl)-5-methylthieno[2,3-d]pyrimidine-2,4(1H,3H)-dione]	730
Cc1c(Cn2nc[nH]c2=O)sc2c1c(=O)n(C1CC1)c(=O)n2CC1CCC1(F)F (single isomer, unassigned; enantiomer 2) [Example 203, 3-Cyclopropyl-1-[(2,2-difluorocyclobutyl)methyl]-5-methyl-6-[(5-oxo-4,5-dihydro-1H-1,2,4-triazol-1-yl)methyl]thieno[2,3-d]pyrimidine-2,4(1H,3H)-dione (enantiomer 2)]	160
COCCn1c(=O)n(C2CC2)c(=O)c2c(C)c(Cn3nc[nH]c3=O)sc21 [Example 29, 3-Cyclopropyl-1-(2-methoxyethyl)-5-methyl-6-[(5-oxo-4,5-dihydro-1H-1,2,4-triazol-1-yl)methyl]thieno[2,3-d]pyrimidine-2,4(1H,3H)-dione]	57
Cc1c(Cn2[nH]ccc2=O)sc2c1c(=O)n(C1(C)CC1)c(=O)n2CCC(F)(F)F [Example 215, 5-Methyl-3-(1-methylcyclopropyl)-6-[(5-oxo-2,5-dihydro-1H-pyrazol-1-yl)methyl]-1-(3,3,3-trifluoropropyl)thieno[2,3-d]pyrimidine-2,4(1H,3H)-dione]	73
Cc1c(Cn2nc[nH]c2=O)sc2c1c(=O)n(C1(C)CC1)c(=O)n2CC1CC1(F)F (racemic) [Example 66, 1-[(2,2-Difluorocyclopropyl)methyl]-5-methyl-3-(1-methylcyclopropyl)-6-[(5-oxo-4,5-dihydro-1H-1,2,4-triazol-1-yl)methyl]thieno[2,3-d]pyrimidine-2,4(1H,3H)-dione]	140
Cc1c(Cn2nc[nH]c2=O)sc2c1c(=O)n(C1CC1)c(=O)n2CC1CCCC1(F)F (single isomer, unassigned) [Example 208, 3-Cyclopropyl-1-[(2,2-difluorocyclopentyl)methyl]-5-methyl-6-[(5-oxo-4,5-dihydro-1H-1,2,4-triazol-1-yl)methyl]thieno[2,3-d]pyrimidine-2,4(1H,3H)-dione]	10
COCCn1c(=O)n([C@H]2C[C@H](OC)C2)c(=O)c2c(C)c(CN3CCNC3=NC(=O)OC)sc21 [Example 151, Methyl [1-{[3-(trans-3-methoxycyclobutyl)-1-(2-methoxyethyl)-5-methyl-2,4-dioxo-1,2,3,4-tetrahydrothieno[2,3-d]pyrimidin-6-yl]methyl}imidazolidin-2-ylidene]carbamate]	45
COCCn1c(=O)n(C2(C)CC2)c(=O)c2c(C)c(Cn3nc[nH]c3=O)sc21 [Example 74, 1-(2-Methoxyethyl)-5-methyl-3-(1-methylcyclopropyl)-6-[(5-oxo-4,5-dihydro-1H-1,2,4-triazol-1-yl)methyl]thieno[2,3-d]pyrimidine-2,4(1H,3H)-dione]	86
COCCn1c(=O)n([C@H]2C[C@@H](OC)C2)c(=O)c2c(C)c(CN3CCNC3=NC(=O)OC)sc21 [Example 161, Methyl [1-{[3-(cis-3-methoxycyclobutyl)-1-(2-methoxyethyl)-5-methyl-2,4-dioxo-1,2,3,4-tetrahydrothieno[2,3-d]pyrimidin-6-yl]methyl}imidazolidin-2-ylidene]carbamate]	130
COCCn1c(=O)n(C2CCC2)c(=O)c2c(C)c(CN3CCNC3=NC(=O)OC)sc21 [Example 117, Methyl [1-{[3-cyclobutyl-1-(2-methoxyethyl)-5-methyl-2,4-dioxo-1,2,3,4-tetrahydrothieno[2,3-d]pyrimidin-6-yl]methyl}imidazolidin-2-ylidene]carbamate]	1.3

Continued, values first:

IC50 [nM]	Structure (SMILES)
25	CCn1c(=O)n([C@H]2C[C@@H]2C)c(=O)c2c(C)c(Cn3nc[nH]c3=O)sc21 [Example 316, 1-Ethyl-5-methyl-3-[(1S,2S)-2-methylcyclopropyl]-6-[(5-oxo-4,5-dihydro-1H-1,2,4-triazol-1-yl)methyl]thieno[2,3-d]pyrimidine-2,4(1H,3H)-dione]
1800	COCCn1c(=O)n(C2CC2C(F)(F)F)c(=O)c2c(C)c(Cn3nc[nH]c3=O)sc21 (single isomer, unassigned) [Example 298, 1-(2-Methoxyethyl)-5-methyl-6-[(5-oxo-4,5-dihydro-1H-1,2,4-triazol-1-yl)methyl]-3-[2-(trifluoromethyl)cyclopropyl]thieno[2,3-d]pyrimidine-2,4(1H,3H)-dione]
140	Cc1c(CN2CCNC2=O)sc2c1c(=O)n(C1CC1(C)C)c(=O)n2CCCF (single isomer, unassigned) [Example 98, 3-(2,2-Dimethylcyclopropyl)-1-(3-fluoropropyl)-5-methyl-6-[(2-oxoimidazolidin-1-yl)methyl]thieno[2,3-d]pyrimidine-2,4(1H,3H)-dione]
2.4	COC(=O)N=C1NCCN1Cc1sc2c(c1C)c(=O)n(C1CC1C)c(=O)n2CCOC(F)(F)F (racemic) [Example 267, Methyl [1-({5-methyl-3-(2-methylcyclopropyl)-2,4-dioxo-1-[2-(trifluoromethoxy)ethyl]-1,2,3,4-tetrahydrothieno[2,3-d]pyrimidin-6-yl}methyl)imidazolidin-2-ylidene]carbamate]
4.2	COC(=O)N=C1NCCN1Cc1sc2c(c1C)c(=O)n(C1CC(F)(F)C1)c(=O)n2CCC(F)(F)F [Example 122, Methyl [1-{[3-(3,3-difluorocyclobutyl)-5-methyl-2,4-dioxo-1-(3,3,3-trifluoropropyl)-1,2,3,4-tetrahydrothieno[2,3-d]pyrimidin-6-yl]methyl}imidazolidin-2-ylidene]carbamate]
7.3	Cc1c(CN2CCNC2=O)sc2c1c(=O)n(C1CC1(C)C)c(=O)n2CCC(F)(F)F (single isomer, unassigned) [Example 102, 3-(2,2-Dimethylcyclopropyl)-5-methyl-6-[(2-oxoimidazolidin-1-yl)methyl]-1-(3,3,3-trifluoropropyl)thieno[2,3-d]pyrimidine-2,4(1H,3H)-dione]
10	Cc1c(CN2CCNC(=O)C2=O)sc2c1c(=O)n(C1CC(F)(F)C1)c(=O)n2CCC(F)(F)F [Example 123, 3-(3,3-Difluorocyclobutyl)-6-[(2,3-dioxopiperazin-1-yl)methyl]-5-methyl-1-(3,3,3-trifluoropropyl)thieno[2,3-d]pyrimidine-2,4(1H,3H)-dione]
47	Cc1c(CN2CCNC2=O)sc2c1c(=O)n(C1CC1C)c(=O)n2C[C@H]1CCCO1 (single isomer, unassigned) [Example 288]
24	Cc1c(CN2CCNC2=O)sc2c1c(=O)n(C1CC1C)c(=O)n2CC(F)(F)F (single isomer, unassigned) [Example 238, 5-Methyl-3-(2-methylcyclopropyl)-6-[(2-oxoimidazolidin-1-yl)methyl]-1-(2,2,2-trifluoroethyl)thieno[2,3-d]pyrimidine-2,4(1H,3H)-dione]
3.4	Cc1c(CN2CCNC2=O)sc2c1c(=O)n(C1CC1C)c(=O)n2CCSC(F)(F)F (single isomer, unassigned) [Example 280, 5-Methyl-3-(2-methylcyclopropyl)-6-[(2-oxoimidazolidin-1-yl)methyl]-1-{2-[(trifluoromethyl)sulfanyl]ethyl}thieno[2,3-d]pyrimidine-2,4(1H,3H)-dione]
8.6	Cc1c(CN2CCNC2=O)sc2c1c(=O)n([C@H]1C[C@@H]1C)c(=O)n2CC1CCO1 (single isomer, unassigned) [Example 284]
68	Cc1c(CN2CCNC2=NC#N)sc2c1c(=O)n(C1COC1)c(=O)n2CCC(F)(F)F [Example 131, [1-{[5-Methyl-3-(oxetan-3-yl)-2,4-dioxo-1-(3,3,3-trifluoropropyl)-1,2,3,4-tetrahydrothieno[2,3-d]pyrimidin-6-yl]methyl}imidazolidin-2-ylidene]cyanamide]
63	Cc1c(Cn2[nH]ccc2=O)sc2c1c(=O)n(C1CC1C)c(=O)n2CCOC(F)(F)F (single isomer, unassigned) [Example 275, 5-Methyl-3-(2-methylcyclopropyl)-6-[(5-oxo-2,5-dihydro-1H-pyrazol-1-yl)methyl]-1-[2-(trifluoromethoxy)ethyl]thieno[2,3-d]pyrimidine-2,4(1H,3H)-dione]
12	Cc1c(CN2CCNC2=O)sc2c1c(=O)n(C1CC1(C)C)c(=O)n2CCC(F)(F)F (racemic) [Example 100, 3-(2,2-Dimethylcyclopropyl)-5-methyl-6-[(2-oxoimidazolidin-1-yl)methyl]-1-(3,3,3-trifluoropropyl)thieno[2,3-d]pyrimidine-2,4(1H,3H)-dione]
1.2	Cc1c(CN2CCNC2=O)sc2c1c(=O)n(C1CC1C)c(=O)n2CCOC(F)(F)F (single isomer, unassigned) [Example 262, 5-Methyl-3-(2-methylcyclopropyl)-6-[(2-oxoimidazolidin-1-yl)methyl]-1-[2-(trifluoromethoxy)ethyl]thieno[2,3-d]pyrimidine-2,4(1H,3H)-dione]
2.8	Cc1c(CN2CCNC2=O)sc2c1c(=O)n(C1CC1C)c(=O)n2C[C@H]1CCCO1 (single isomer, unassigned) [Example 287]
